System: patients with fasting triglyceride levels >200 mg/dl and <500 mg/dl despite statin therapy
Experiment: 12-week study: lipoprotein particle concentration (VLDL, LDL, HDL; nuclear magnetic resonance)
Type: in vivo, human
Details: for LDL Particle Concentration, Week 12 EP Median (IQR): MITT; for LDL Particle Concentration, Percent change from Baseline, Median (IQR) / LDL Particle Concentration, Difference from placebo, Estimated median: Week 12, MITT; for LDL Particle Concentration, Difference from placebo, Estimated median: difference in percent change
From the text: Parameters (a)-(z) can be measured in accordance with any clinically acceptable methodology. For example, triglycerides, total cholesterol, HDL-C and fasting blood sugar can be sample from serum and analyzed using standard photometry techniques. VLDL-TG, LDL-C and VLDL-C can be calculated or determined using serum lipoprotein fractionation by preparative ultracentrifugation and subsequent quantitative analysis by refractometry or by analytic ultracentrifugal methodology. Apo A1, Apo B and hsCRP can be determined from serum using standard nephelometry techniques. Lipoprotein (a) can be determined from serum using standard turbidimetric immunoassay techniques. LDL particle number and particle size can be determined using nuclear magnetic resonance (NMR) spectrometry. Remnants lipoproteins and LDL-phospholipase A2 can be determined from EDTA plasma or serum and serum, respectively, using enzymatic immunoseparation techniques. Oxidized LDL, intercellular adhesion molecule-1 and interleukin-2 levels can be determined from serum using standard enzyme immunoassay techniques. These techniques are described in detail in standard textbooks, for example Tietz Fundamentals of Clinical Chemistry, 6th Ed. (Burtis, Ashwood and Borter Eds.), WB Saunders Company.
A multi-center, placebo-controlled, randomized, double-blind, 12-week study was performed to evaluate the efficacy and safety of >96% E-EPA in patients with fasting triglyceride levels >200 mg/dl and <500 mg/dl despite statin therapy (the mean of two qualifying entry values needed to be >185 mg/dl and at least one of the values needed to be >200 mg/dl). The primary objective of the study was to determine the efficacy of >96% E-EPA 2 g daily and 4 g daily, compared to placebo, in lowering fasting TG levels in patients with high risk for cardiovascular disease and with fasting TG levels 200 mg/dl and <500 mg/dl, despite treatment to LDL-C goal on statin therapy.
The secondary objectives of this study were the following: • 1. To determine the safety and tolerability of >96% E-EPA 2 g daily and 4 g daily; • 2. To determine the effect of >96% E-EPA on lipid and apolipoprotein profiles including total cholesterol (TC), non-high-density lipoprotein cholesterol (non-HDL-C), low density lipoprotein cholesterol (LDL-C), high density lipoprotein cholesterol (HDL-C), and […]; • 3. To determine the effect of >96% E-EPA on lipoprotein associated phospholipase A2 (Lp-PLA2) from baseline to week 12; • 4. To determine the effect of >96% E-EPA on low-density lipoprotein (LDL) particle number and size; • 5. To determine the effect of >96% E-EPA on oxidized LDL; • 6. To determine the effect of >96% E-EPA on fasting plasma glucose (FPG) and hemoglobin A1c (HbA1c); • 7. To determine the effect of >96% E-EPA on insulin resistance; • 8. To determine the effect of >96% E-EPA on high-sensitivity C-reactive protein (hsCRP); • 9. To determine the effects of >96% E-EPA 2 g daily and 4 g daily on the incorporation of fatty acids into red blood cell membranes and into plasma phospholipids; • 10. To explore the relationship between baseline fasting TG levels and the reduction in fasting TG levels; and • 11. To explore the relationship between changes of fatty acid concentrations in plasma and red blood cell membranes, and the reduction in fasting TG levels.
The primary efficacy variable for the double-blind treatment period was percent change in TG from baseline to Week 12 endpoint. […]

[1] = 2 g/day, 12 weeks, placebo-adjusted Hodges-Lehmann median
[2] = 4 g/day, 12 weeks, placebo-adjusted Hodges-Lehmann median
[3] = 4 g/day, 12 weeks, placebo-adjusted Hodges-Lehmann median, listed as IPE
[4] = IPE 2 g/day (n = 222), 12 weeks

CC/C=C\C/C=C\C/C=C\C/C=C\C/C=C\CCCC(=O)OCC [AMR101, ethyl eicosapentaenoate]
IDL particle concentration, Median Change From Baseline IPE 2 g/day vs Placebo [1]: 8.6%
Large HDL particle concentration, Median Change From Baseline IPE 2 g/day vs Placebo [1]: −13.5%
Large LDL particle concentration, Median Change From Baseline IPE 2 g/day vs Placebo [1]: 26.5%
Large VLDL particle concentration, Median Change From Baseline IPE 2 g/day vs Placebo [1]: −24.2%
Medium HDL particle concentration, Median Change From Baseline IPE 2 g/day vs Placebo [1]: −4.5%
Medium VLDL particle concentration, Median Change From Baseline IPE 2 g/day vs Placebo [1]: 2.6%
Small HDL particle concentration, Median Change From Baseline IPE 2 g/day vs Placebo [1]: −0.2%
Small LDL particle concentration, Median Change From Baseline IPE 2 g/day vs Placebo [1]: −14.7%
Small VLDL particle concentration, Median Change From Baseline IPE 2 g/day vs Placebo [1]: 16.5%
Total HDL particle concentration, Median Change From Baseline IPE 2 g/day vs Placebo [1]: −3.1%
Total LDL particle concentration, Median Change From Baseline IPE 2 g/day vs Placebo [1]: −7.5%
Total VLDL particle concentration, Median Change From Baseline IPE 2 g/day vs Placebo [1]: 1.8%
Reduction of median concentration of small LDL particles over baseline when adjusted for placebo control (4 g per day, 12 weeks): 13.5%
Reduction of median concentration of total HDL over baseline when adjusted for placebo (4 g per day, 12 weeks): 7.4%
Reduction of median concentration of total LDL over baseline when adjusted for placebo (4 g per day, 12 weeks): 7.7%
Reduction of median concentration of total VLDL over baseline when adjusted for placebo (4 g per day, 12 weeks): 12.2%
IDL particle concentration, Median Change From Baseline IPE 4 g/day vs Placebo [2]: 10.0%
Medium HDL particle concentration, Median Change From Baseline IPE 4 g/day vs Placebo [2]: −6.5%
Small HDL particle concentration, Median Change From Baseline IPE 4 g/day vs Placebo [2]: −2.8%
Small LDL particle concentration, Median Change From Baseline IPE 4 g/day vs Placebo [2]: −13.5%
Small VLDL particle concentration, Median Change From Baseline IPE 4 g/day vs Placebo [2]: 2.8%
Total HDL particle concentration, Median Change From Baseline IPE 4 g/day vs Placebo [2]: −7.4%
Total LDL particle concentration, Median Change From Baseline IPE 4 g/day vs Placebo [2]: −7.7%
Total VLDL particle concentration, Median Change From Baseline IPE 4 g/day vs Placebo [2]: −12.2%
Large HDL particle concentration, Median Change From Baseline IPE 4 g/day vs Placebo [3]: −31.0%
Large LDL particle concentration, Median Change From Baseline IPE 4 g/day vs Placebo [3]: 34.2%
Large VLDL particle concentration, Median Change From Baseline IPE 4 g/day vs Placebo [3]: −46.4%
Medium VLDL particle concentration, Median Change From Baseline IPE 4 g/day vs Placebo [3]: −12.1%
Small LDL particle concentration, Median Change From Baseline IPE 4 g/day vs Placebo [3]: −13.5%
Total HDL particle concentration, Median Change From Baseline IPE 4 g/day vs Placebo [3]: −7.4%
Total LDL particle concentration, Median Change From Baseline IPE 4 g/day vs Placebo [3]: −7.7%
Total VLDL particle concentration, Median Change From Baseline IPE 4 g/day vs Placebo [3]: −12.2%
LDL Particle Concentration, Week 12 EP Median (IQR) (AMR101 2g/d + statin, n 222): 1215.0 (355.0) nmol/L
LDL Particle Concentration, Percent change from Baseline, Median (IQR) (AMR101 2g/d + statin): 4.7 (29.2) %
LDL Particle Concentration, Difference from placebo, Estimated median (AMR101 2g/d + statin): −7.5
LDL Particle Concentration, Week 12 EP Median (IQR) (AMR101 4g/d + statin, n 216): 1190.5 (512.0) nmol/L
LDL Particle Concentration, Percent change from Baseline, Median (IQR) (AMR101 4g/d + statin): 3.8 (31.8) %
LDL Particle Concentration, Difference from placebo, Estimated median (AMR101 4g/d + statin): −7.7
IDL particle concentration, Change from Baseline % (median) [4]: 10.5%
IDL particle concentration, End of Treatment (median) [4]: 63.5 nmol/L
Large HDL particle concentration, Change from Baseline % (median) [4]: −4.0%
Large HDL particle concentration, End of Treatment (median) [4]: 2.4 µmol/L
Large LDL particle concentration, Change from Baseline % (median) [4]: 47.7%
Large LDL particle concentration, End of Treatment (median) [4]: 202.0 nmol/L
Large VLDL particle concentration, Change from Baseline % (median) [4]: −19.7%
Large VLDL particle concentration, End of Treatment (median) [4]: 10 nM
Medium HDL particle concentration, Change from Baseline % (median) [4]: 2.9%
Medium HDL particle concentration, End of Treatment (median) [4]: 7.2 µmol/L
Medium VLDL particle concentration, Change from Baseline % (median) [4]: 7.9%
Medium VLDL particle concentration, End of Treatment (median) [4]: 59.6 nmol/L
Small HDL particle concentration, Change from Baseline % (median) [4]: −0.6%
Small HDL particle concentration, End of Treatment (median) [4]: 23.8 µmol/L
Small LDL particle concentration, Change from Baseline % (median) [4]: −4.3%
Small LDL particle concentration, End of Treatment (median) [4]: 920.5 nmol/L
Small VLDL particle concentration, Change from Baseline % (median) [4]: 22.1%
Small VLDL particle concentration, End of Treatment (median) [4]: 49.6 nmol/L
Total HDL particle concentration, Change from Baseline % (median) [4]: 0.7%
Total HDL particle concentration, End of Treatment (median) [4]: 34.7 µmol/L
Total LDL particle concentration, Change from Baseline % (median) [4]: 4.7%
Total LDL particle concentration, End of Treatment (median) [4]: 1215 nmol/L
Total VLDL particle concentration, Change from Baseline % (median) [4]: 12.0%

Source: US11285127B2, “Compositions and methods for lowering triglycerides without raising LDL-C levels in a subject on concomitant statin therapy” (Amarin Pharmaceuticals Ireland Limited, priority 2013, dated 2022)
